In patent US20220142158A1, “ARTHROPOD CONTROL COMPOSITIONS” (FIRMENICH SA, priority 2019, published 2022):

Test system: Aedes aegypti
Assay: Warm Body Assay, in-vitro repulsion of mosquitoes
Details: 100% at concentration 0
Experimental: The arthropod controlling effect according to the present invention is determined on mosquitoes using an adapted Warm Body assay as defined in Kröber T, Kessler S, Frei J, Bourquin M, Guerin P M. An in vitro assay for testing mosquito controlling compounds employing a warm body and carbon dioxide as a behavioral activator. J Am Mosq Control Assoc. 2010; 26:381-386.
The controlling effect according to the present invention is determined by testing the Warm Body assay against the yellow fever mosquito, Aedes aegypti Rockefeller strain. […] Observations of controlling efficacy were made on host-seeking females of uniform age, 5 to 10 days old selected as mentioned in the publication mentioned hereinabove. Tested hungry females had access to 10% sugar solution but were not blood-fed.
(§1) The published protocol has been adapted in not manually counting the landing mosquitoes but automatically using an automatic counting software, the switch from Anopheles gambiae to A. aegypti led to a decrease of mosquitoes' number placed in the tested cage due to the size difference (i.e. 30 mosquitoes instead of 50) and to an increase of lighting as A. aegypti is a diurnal mosquitoes (i.e. 150 lux instead of 4 lux).
The controlling efficacy in vitro was by an adapted Warm Body assay as defined in Kröber T, Kessler S, Frei J, Bourquin M, Guerin P M. An in vitro assay for testing mosquito controlling compounds employing a warm body and carbon dioxide as a behavioral activator. J Am Mosq Control Assoc. 2010; 26:381-386. The controlling effect according to the present invention is determined by testing the Warm Body assay against the yellow fever mosquito, A. aegypti Rockefeller strain.
as §1, with “Observations of controlling efficacy were made on host-seeking females of uniform age, 5 to 10 days old selected as mentioned in the publication mentioned hereinabove. Tested hungry females had access to 10% sugar solution but were not blood-fed. The” for “The”
In this in-vitro assay the number of A. aegypti landing on a warm body treated with the tested stimuli was measured in order to assess the repellency effect. […]

CCN(CC)C(=O)c1cccc(C)c1 [DEET, N,N-diethyl-3-methylbenzamide]
Mean ± SD of normalized repulsion of mosquitoes Aedes aegypti (concentration 0.016 mg/mL): 90% ± 9% | Mean ± SD of normalized repulsion of mosquitoes Aedes aegypti (concentration 0.08 mg/mL): 42% ± 7% | Mean ± SD of normalized repulsion of mosquitoes Aedes aegypti (concentration 0.4 mg/mL): 11% ± 5% | Mean ± SD of normalized repulsion of mosquitoes Aedes aegypti (concentration 2 mg/mL): 2% ± 1% | Mean ± SD of normalized repulsion of mosquitoes Aedes aegypti (concentration 10 mg/mL): 3% ± 3%

CCCCN(CCC(=O)OCC)C(C)=O [IR3535, ethyl butylacetylaminopropionate]
Mean ± SD of normalized repulsion of mosquitoes Aedes aegypti (concentration 0.016 mg/mL): 103% ± 20% | Mean ± SD of normalized repulsion of mosquitoes Aedes aegypti (concentration 0.08 mg/mL): 108% ± 14% | Mean ± SD of normalized repulsion of mosquitoes Aedes aegypti (concentration 0.4 mg/mL): 31% ± 5% | Mean ± SD of normalized repulsion of mosquitoes Aedes aegypti (concentration 2 mg/mL): 22% ± 9% | Mean ± SD of normalized repulsion of mosquitoes Aedes aegypti (concentration 10 mg/mL): 11% ± 2%
